In PubChem BioAssay (NCI):
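In this assay, cells in 96-well plates receive the compound at five concentrations for 48 hours. Endpoints are linearly interpolated between the surrounding concentrations. TGI: total growth inhibition.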

Experiments:
Assay in all cases: DTP human tumour cell line panel, 48 h
786-0 renal = system: 786-0 renal
A498 renal = system: A498 renal
A549 NSCLC = system: A549 NSCLC
ACHN renal = system: ACHN renal
BT-549 breast = system: BT-549 breast
CAKI-1 renal = system: CAKI-1 renal
CCRF-CEM leukemia = system: CCRF-CEM leukemia
COLO 205 colon = system: COLO 205 colon
EKVX NSCLC = system: EKVX NSCLC
HCC-2998 colon = system: HCC-2998 colon
HCT-116 colon = system: HCT-116 colon
HCT-15 colon = system: HCT-15 colon
HL-60(TB) leukemia = system: HL-60(TB) leukemia
HOP-62 NSCLC = system: HOP-62 NSCLC
HOP-92 NSCLC = system: HOP-92 NSCLC
HS 578T breast = system: HS 578T breast
HT29 colon = system: HT29 colon
IGROV1 ovarian = system: IGROV1 ovarian
K-562 leukemia = system: K-562 leukemia
KM12 colon = system: KM12 colon
LOX IMVI melanoma = system: LOX IMVI melanoma
M14 melanoma = system: M14 melanoma
MALME-3M melanoma = system: MALME-3M melanoma
MCF7 breast = system: MCF7 breast
MDA-MB-231 breast = system: MDA-MB-231 breast
MDA-MB-435 = system: MDA-MB-435
MDA-N = system: MDA-N
MOLT-4 leukemia = system: MOLT-4 leukemia
NCI-H226 lung = system: NCI-H226 lung
NCI-H23 lung = system: NCI-H23 lung
NCI-H460 lung = system: NCI-H460 lung
NCI-H522 lung = system: NCI-H522 lung
NCI/ADR-RES ovarian = system: NCI/ADR-RES ovarian
OVCAR-3 ovarian = system: OVCAR-3 ovarian
OVCAR-4 ovarian = system: OVCAR-4 ovarian
OVCAR-5 ovarian = system: OVCAR-5 ovarian
OVCAR-8 ovarian = system: OVCAR-8 ovarian
PC-3 prostate = system: PC-3 prostate
RPMI-8226 leukemia = system: RPMI-8226 leukemia
RXF 393 renal = system: RXF 393 renal
SF-295 CNS = system: SF-295 CNS
SF-539 CNS = system: SF-539 CNS
SK-MEL-2 melanoma = system: SK-MEL-2 melanoma
SK-MEL-5 melanoma = system: SK-MEL-5 melanoma
SK-OV-3 ovarian = system: SK-OV-3 ovarian
SN12C renal = system: SN12C renal
SNB-19 CNS = system: SNB-19 CNS
SNB-75 CNS = system: SNB-75 CNS
SR leukemia = system: SR leukemia
SW-620 colon = system: SW-620 colon
T-47D breast = system: T-47D breast
TK-10 renal = system: TK-10 renal
U251 CNS = system: U251 CNS
UACC-257 melanoma = system: UACC-257 melanoma
UACC-62 melanoma = system: UACC-62 melanoma
DU-145 prostate = system: DU-145 prostate
SF-268 CNS = system: SF-268 CNS
UO-31 renal = system: UO-31 renal

COC(=O)/C=C(\S/C=C(/c1ccccc1)N1CCn2c(C(=O)c3ccccc3)c(C(=O)OC)c(C(=O)OC)c21)C(=O)OC
TGI (786-0 renal): 3.19 µM | TGI (A498 renal): > 10 µM | TGI (A549 NSCLC): > 10 µM | TGI (ACHN renal): > 10 µM | TGI (BT-549 breast): > 10 µM | TGI (CAKI-1 renal): > 10 µM | TGI (CCRF-CEM leukemia): 4.2 µM | TGI (COLO 205 colon): 3.46 µM | TGI (EKVX NSCLC): > 10 µM | TGI (HCC-2998 colon): > 10 µM | TGI (HCT-116 colon): 5 µM | TGI (HCT-15 colon): 6.7 µM | TGI (HL-60(TB) leukemia): 2.6 µM | TGI (HOP-62 NSCLC): 5.02 µM | TGI (HOP-92 NSCLC): 4.73 µM | TGI (HS 578T breast): > 10 µM | TGI (HT29 colon): > 10 µM | TGI (IGROV1 ovarian): > 10 µM | TGI (K-562 leukemia): > 10 µM | TGI (KM12 colon): > 10 µM | TGI (LOX IMVI melanoma): 4.28 µM | TGI (M14 melanoma): 5.83 µM | TGI (MALME-3M melanoma): 4.81 µM | TGI (MCF7 breast): 4.33 µM | TGI (MDA-MB-231 breast): 5.27 µM | TGI (MDA-MB-435): > 10 µM | TGI (MDA-N): > 10 µM | TGI (MOLT-4 leukemia): 5.64 µM | TGI (NCI-H226 lung): > 10 µM | TGI (NCI-H23 lung): > 10 µM | TGI (NCI-H460 lung): > 10 µM | TGI (NCI-H522 lung): 1.73 µM | TGI (NCI/ADR-RES ovarian): > 10 µM | TGI (OVCAR-3 ovarian): 2.87 µM | TGI (OVCAR-4 ovarian): 6.57 µM | TGI (OVCAR-5 ovarian): > 10 µM | TGI (OVCAR-8 ovarian): 3.21 µM | TGI (PC-3 prostate): > 10 µM | TGI (RPMI-8226 leukemia): 7.49 µM | TGI (RXF 393 renal): 4.67 µM | TGI (SF-295 CNS): > 10 µM | TGI (SF-539 CNS): 3.74 µM | TGI (SK-MEL-2 melanoma): > 10 µM | TGI (SK-MEL-5 melanoma): > 10 µM | TGI (SK-OV-3 ovarian): > 10 µM | TGI (SN12C renal): > 10 µM | TGI (SNB-19 CNS): > 10 µM | TGI (SNB-75 CNS): > 10 µM | TGI (SR leukemia): > 10 µM | TGI (SW-620 colon): 2.03 µM | TGI (T-47D breast): 5.91 µM | TGI (TK-10 renal): 5.61 µM | TGI (U251 CNS): > 10 µM | TGI (UACC-257 melanoma): 9.21 µM | TGI (UACC-62 melanoma): > 10 µM

Cc1ccc2[nH]c3[nH]c(=S)[nH]c(=O)c3c2c1
TGI (786-0 renal): > 100 µM | TGI (A498 renal): > 100 µM | TGI (A549 NSCLC): > 100 µM | TGI (ACHN renal): > 100 µM | TGI (BT-549 breast): > 100 µM | TGI (CAKI-1 renal): > 100 µM | TGI (CCRF-CEM leukemia): > 100 µM | TGI (COLO 205 colon): > 100 µM | TGI (DU-145 prostate): > 100 µM | TGI (EKVX NSCLC): > 100 µM | TGI (HCC-2998 colon): > 100 µM | TGI (HCT-116 colon): > 100 µM | TGI (HCT-15 colon): > 100 µM | TGI (HL-60(TB) leukemia): > 100 µM | TGI (HOP-62 NSCLC): > 100 µM | TGI (HOP-92 NSCLC): > 100 µM | TGI (HS 578T breast): > 100 µM | TGI (HT29 colon): > 100 µM | TGI (IGROV1 ovarian): > 100 µM | TGI (K-562 leukemia): > 100 µM | TGI (KM12 colon): > 100 µM | TGI (LOX IMVI melanoma): > 100 µM | TGI (M14 melanoma): > 100 µM | TGI (MALME-3M melanoma): > 100 µM | TGI (MCF7 breast): > 100 µM | TGI (MDA-MB-231 breast): > 100 µM | TGI (MDA-MB-435): > 100 µM | TGI (MDA-N): > 100 µM | TGI (MOLT-4 leukemia): > 100 µM | TGI (NCI-H226 lung): > 100 µM | TGI (NCI-H23 lung): > 100 µM | TGI (NCI-H522 lung): > 100 µM | TGI (NCI/ADR-RES ovarian): > 100 µM | TGI (OVCAR-3 ovarian): > 100 µM | TGI (OVCAR-5 ovarian): > 100 µM | TGI (OVCAR-8 ovarian): > 100 µM | TGI (RPMI-8226 leukemia): > 100 µM | TGI (RXF 393 renal): > 100 µM | TGI (SF-268 CNS): > 100 µM | TGI (SF-295 CNS): > 100 µM | TGI (SF-539 CNS): > 100 µM | TGI (SK-MEL-2 melanoma): > 100 µM | TGI (SK-MEL-5 melanoma): > 100 µM | TGI (SK-OV-3 ovarian): > 100 µM | TGI (SN12C renal): > 100 µM | TGI (SNB-19 CNS): > 100 µM | TGI (SNB-75 CNS): > 100 µM | TGI (SR leukemia): > 100 µM | TGI (SW-620 colon): > 100 µM | TGI (T-47D breast): > 100 µM | TGI (TK-10 renal): > 100 µM | TGI (UACC-257 melanoma): > 100 µM | TGI (UACC-62 melanoma): > 100 µM | TGI (UO-31 renal): > 100 µM
